Data as given in article PMC11310889, “Ribosomal translation of fluorinated non-canonical amino acids for de novo biologically active fluorinated macrocyclic peptides” (Chemical Science, 2024).

Tested on: E. coli W3110
Assay: Evaluation of R9-conjugated macrocyclic peptides against E. coli W3110 (survival, CFU)
Assay type: cell-based, Escherichia coli
Conditions: E. coli W3110 logarithmic-phase, 5 μM peptide, 15 min treatment (Fig. 4B)
Description: the samples were centrifuged at 1000 rpm for 10 min，and take pictures of the pellet after centrifugation. Then, the supernatant from each sample was absorbed into the 96-well plate to ensure that there could be no air bubbles in each hole. The absorbance of the supernatant at the wavelength of 545 nm was measured by microplate reader, and the percentage of hemolysis of each […]
Percentage of hemolysis = 100%OD-OD×
Evaluation of R9-conjugated macrocyclic peptides against Gram-negative pathogens Remove the previously preserved E. coli W3110 cells from the -80 °C refrigerator, scrape a little, inoculate it into 1 mL LB liquid medium, and culture overnight in 37 °C shaker. The strain was inoculated into fresh LB liquid medium according to the inoculation ratio of 1:100 and incubated at 37 ℃ until the OD600 reached about 0.47~0.53. First, 100 μL E. coli W3110 cells was taken, then centrifuged for 2 minutes at 13000 rpm, then the supernatant was absorbed and discarded, and then the cells were resuspended with 100 μL PBS solution, followed by 13000 rpm centrifugation for two minutes. Various fluorinated macrocyclic peptides conjugated with R9 were dissolved in DMSO and then diluted to the required concentration. […] Finally, the plate was scanned and counted. […]

Row | Substance | eradication of E. coli bacteria
1 | Ac-(4-F-DPhe)IWHKSLT(4-F-DPhe)NYLHTCGS(Acp)RRRRRRRRR-NH2 (sidechain bridge or staple) [BAM-f2-R9, BAM-f2 conjugated with cell-penetrating peptide R9] | over 99.9%
2 | Ac-(4-F-DPhe)KHFIY(4-F-β-Phe)YRSPICGS(Acp)RRRRRRRRR-NH2 (sidechain bridge or staple) [BAM-β3-R9, BAM-β3 conjugated with cell-penetrating peptide R9] | over 99.9%
